The target in series [1] is T1, human COX-2 (Homo sapiens, UniProt P35354).
T1 sequence (P35354 18-604): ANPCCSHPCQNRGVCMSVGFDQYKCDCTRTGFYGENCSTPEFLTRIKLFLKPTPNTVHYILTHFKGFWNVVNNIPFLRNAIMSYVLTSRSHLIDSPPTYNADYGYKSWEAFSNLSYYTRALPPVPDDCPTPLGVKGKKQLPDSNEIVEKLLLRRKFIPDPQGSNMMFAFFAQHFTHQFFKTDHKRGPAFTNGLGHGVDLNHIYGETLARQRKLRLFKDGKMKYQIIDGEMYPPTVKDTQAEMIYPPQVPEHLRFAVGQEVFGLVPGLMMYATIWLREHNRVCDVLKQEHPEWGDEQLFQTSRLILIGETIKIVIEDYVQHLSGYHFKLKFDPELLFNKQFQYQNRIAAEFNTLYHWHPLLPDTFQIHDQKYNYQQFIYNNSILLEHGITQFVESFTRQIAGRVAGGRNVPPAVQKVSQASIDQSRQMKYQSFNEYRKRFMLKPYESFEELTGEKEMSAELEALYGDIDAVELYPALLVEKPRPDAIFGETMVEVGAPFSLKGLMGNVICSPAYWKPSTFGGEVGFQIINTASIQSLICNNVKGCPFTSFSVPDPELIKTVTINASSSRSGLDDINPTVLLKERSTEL
Put plainly: In vitro COX-2 inhibition assay (Cayman colorimetric COX inhibitor screening kit). The conditions noted are these: for SI (COX-2 selectivity index): COX-1 (IC50)/COX-2 (IC50); for IC50: COX-2 IC50, mean ± SEM, n = 3.
Protocol: (§1) The in vitro enzyme assays were performed at the Biochemistry Department, Cairo
(§2) General Hospital, Egypt. Cayman® colorimetric COX (ovine) inhibitor screening assay kit (Item
(§3) enzymes in presence of all newly compounds. Generally, this kit is dependent on the reductive
(§4) reaction of COX. A specific antibody binds to PGH2 produced by COX and is further quantified
(§5) by the ELISA technique as previously reported. After that, the selectivity index (SI) was calculated
as the following equation:
𝐒𝐞𝐥𝐞𝐜𝐭𝐢𝐯𝐢𝐭𝐲 𝐢𝐧𝐝𝐞𝐱 (𝐒𝐈) = 𝐈𝐂₅₀𝐨𝐟 𝐂𝐎𝐗 − 𝟏

The target of series [2] is T2, ovine COX-1 (Ovis aries, UniProt P05979).
T2 sequence (P05979 25-600): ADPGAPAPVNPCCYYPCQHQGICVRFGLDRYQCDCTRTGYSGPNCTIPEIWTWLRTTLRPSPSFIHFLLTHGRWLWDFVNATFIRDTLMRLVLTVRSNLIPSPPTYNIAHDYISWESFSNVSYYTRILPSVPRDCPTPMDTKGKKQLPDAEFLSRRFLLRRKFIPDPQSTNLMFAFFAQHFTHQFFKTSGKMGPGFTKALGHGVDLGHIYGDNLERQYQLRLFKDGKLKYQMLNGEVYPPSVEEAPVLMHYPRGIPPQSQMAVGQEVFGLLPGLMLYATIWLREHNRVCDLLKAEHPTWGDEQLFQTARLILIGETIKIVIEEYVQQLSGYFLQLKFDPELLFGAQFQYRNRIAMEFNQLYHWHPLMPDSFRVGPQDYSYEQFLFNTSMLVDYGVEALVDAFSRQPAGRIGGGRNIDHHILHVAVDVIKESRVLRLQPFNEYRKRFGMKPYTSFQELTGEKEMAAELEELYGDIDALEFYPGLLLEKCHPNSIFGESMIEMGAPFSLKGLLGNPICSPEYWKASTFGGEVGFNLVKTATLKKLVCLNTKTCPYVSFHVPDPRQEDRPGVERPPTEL
Put plainly: In vitro COX-1 inhibition assay (Cayman colorimetric COX inhibitor screening kit).
Protocol: as §1, §2, §3, §4, §5
as the following equation:
𝐒𝐞𝐥𝐞𝐜𝐭𝐢𝐯𝐢𝐭𝐲 𝐢𝐧𝐝𝐞𝐱 (𝐒𝐈) = 𝐈𝐂₅₀𝐨𝐟 𝐂𝐎𝐗 − 𝟏

In series [3] the test system is carrageenan-induced paw edema. Put plainly: Carrageenan paw edema test (paw thickness, paw weight). As to conditions: for Paw thickness difference: oral; for Paw thickness difference / Paw Weight Increase: mean ± SD, n = 6; for Percentage of inhibition of paw thickness: vs carrageenan group; for Paw Weight Increase: right vs left paw, after 5 h.
Protocol: The carrageenan paw edema test was conducted following established procedures as detailed (Supplementary Materials, page 53).
In-vivo anti-inflammatory activity
The carrageenan paw edema test was conducted following established procedures. In summary, seventy-two rats were randomly assigned to twelve groups, each comprising six rats.
These groups included normal controls, carrageenan controls (both receiving the vehicle; 1%
Acute inflammation was induced in the right hind paws of all rats one hour after oral administration of the respective compounds or vehicle. This was achieved by injecting a freshly prepared 0.1 mL carrageenan suspension (1% in normal saline) subplantarly into the right hind paw, except for the normal control group, which received a saline injection. Paw thickness was measured hourly (Ct) until the fifth hour (C5) post-carrageenan injection (C0). The hourly increase in paw thickness (paw thickness difference) was calculated by subtracting the initial measurement (C0) from the thickness at each hour (Ct), and the results were presented as the mean increase in paw thickness (mm). To evaluate anti-inflammatory effects, the percentage of inhibition for each standard and test compound was determined using the formula: percentage of inhibition (%) = [(Paw thickness difference of carrageenan group - Paw thickness difference of treated)/ Paw thickness difference of carrageenan group] × 100. […] The paws were then excised and weighed (both left and right). The percentage of weight increase between the left and right paws of each animal was calculated using the equation: Percentage of weight increase = [(Weight of the right paw - Weight of the left paw) / Weight of the left paw] ×100.

One may read the melting point as the temperature of the solid-liquid transition. By IC50 is commonly meant the concentration that gives 50% inhibition. Low readings indicate greater potency in that assay, high ones weaker potency in that assay.

`O=C(O)COc1ccccc1C=NNC(=O)c1ccccc1` [Compound 5a, 2-(2-((2-Benzoylhydrazineylidene)methyl)phenoxy)acetic acid] had a melting point of 209 to 211 °C. Further, in series [1], the “SI (COX-2 selectivity index)” value stood at 10.31 and 970 ± 60 nM corresponded to half-maximal inhibition (IC50). Also, in series [2], the IC50 came to 10000 ± 100 nM.

The molecule `Cc1ccc(C(=O)NN=Cc2ccccc2OCC(=O)O)cc1` [Compound 5b, 2-(2-((2-(4-Methylbenzoyl)hydrazineylidene)methyl)phenoxy)acetic acid] displayed a melting point of 222 to 223 °C. In series [1], the “SI (COX-2 selectivity index)” value is 20.27 and half-maximal inhibition (IC50) was put at 370 ± 60 nM. This molecule also returned an IC50 in series [2] of 7500 ± 200 nM.

In turn, `O=C(O)COc1ccccc1C=NNC(=O)c1ccc(Cl)cc1` [Compound 5c, 2-(2-((2-(4-Chlorobenzoyl)hydrazineylidene)methyl)phenoxy)acetic acid] returned a melting point of 241 to 243 °C. In series [1], the “SI (COX-2 selectivity index)” value stood at 111.53 and half-maximal inhibition (IC50) required 130 ± 60 nM. The half-inhibitory concentration (IC50) in series [2] was found to be 14500 ± 200 nM.

On to `O=C(O)COc1ccc(Br)cc1C=NNC(=O)c1ccccc1` [Compound 5d, 2-(2-((2-Benzoylhydrazineylidene)methyl)-4-bromophenoxy)acetic acid], for which the “SI (COX-2 selectivity index)” value in series [1] turned out to be 112.87. Further, the half-maximal inhibitory concentration (IC50) in series [1] came out at 80 ± 10 nM; in series [2] it was 9030 ± 150 nM. The Paw thickness difference in series [3] (1st h after carrageenan) was found to be 1.37 ± 0.13 mm; in series [3] (2nd h after carrageenan), 2.76 ± 0.24 mm; in series [3] (3rd h after carrageenan), 3.56 ± 0.33 mm; in series [3] (4th h after carrageenan), 3.7 ± 0.32 mm; in series [3] (5th h after carrageenan), 3.90 ± 0.41 mm. Besides, the “Percentage of inhibition of paw thickness” value is 30.57% in series [3] (1st h); 16.19% in series [3] (2nd h); 15.67% in series [3] (3rd h); 26.75% in series [3] (4th h); 26.51% in series [3] (5th h). Also, the “Paw Weight Increase” value in series [3] was 76.92 ± 3.89 ^abcd %.

On to `Cc1ccc(C(=O)NN=Cc2cc(Br)ccc2OCC(=O)O)cc1` [Compound 5e, 2-(4-Bromo-2-((2-(4-methylbenzoyl)hydrazineylidene)methyl)phenoxy)acetic acid], for which the “SI (COX-2 selectivity index)” value in series [1] worked out at 100.00. Further, the values for the IC50 in series [1] and in series [2] were 70 ± 10 nM and 7000 ± 200 nM, respectively. Besides, the Paw thickness difference in series [3] (1st h after carrageenan) was 1.57 ± 0.4 mm; in series [3] (2nd h after carrageenan), 2.53 ± 0.48 mm; in series [3] (3rd h after carrageenan), 3.43 ± 0.10 mm; in series [3] (4th h after carrageenan), 3.55 ± 0.11 mm; in series [3] (5th h after carrageenan), 3.68 ± 0.15 mm. Further, the “Percentage of inhibition of paw thickness” value in series [3] (1st h) worked out at 20.35%; in series [3] (2nd h), 23.28%; in series [3] (3rd h), 18.71%; in series [3] (4th h) it was 29.59%; in series [3] (5th h) it was 30.72%. Further, the “Paw Weight Increase” value in series [3] is reported as 47.55 ± 2.41 ^abcd %.

On to `O=C(O)COc1ccccc1C=NNC(=O)Cc1ccccc1` [Compound 7a, 2-(2-((2-(2-Phenylacetyl)hydrazineylidene)methyl)phenoxy)acetic acid], for which the melting point fell in the range of 214 to 215 °C. Moreover, in series [1], the “SI (COX-2 selectivity index)” value was determined as 76.92 and the IC50 is 130 ± 60 nM. In series [2], this molecule came in with an IC50 of 10000 ± 200 nM.

For `O=C(O)COc1ccccc1/C=N/NC(=O)CNc1ccccc1` [Compound 10a], the melting point lay within 221 to 222 °C. In series [1], the “SI (COX-2 selectivity index)” value is on record as 19.00 and the concentration for half-maximal inhibition (IC50) was 500 ± 100 nM. Further, the half-maximal inhibitory concentration (IC50) in series [2] turned out to be 9500 ± 200 nM.

In the case of `Cc1ccc(NCC(=O)NN=Cc2ccccc2OCC(=O)O)cc1` [Compound 10b, 2-(2-((2-(4-Tolylglycyl)hydrazineylidene)methyl)phenoxy)acetic acid], the melting point is 236 to 238 °C. In series [1], the “SI (COX-2 selectivity index)” value is given as 15.06 and the IC50 was found to be 330 ± 60 nM. This molecule also registered an IC50 in series [2] of 4970 ± 60 nM.

As for `O=C(O)COc1ccccc1C=NNC(=O)CNc1ccc(Cl)cc1` [Compound 10c, 2-(2-((2-((4-Chlorophenyl)glycyl)hydrazineylidene)methyl)phenoxy)acetic acid], the “SI (COX-2 selectivity index)” value in series [1] was 79.57. Besides, the half-maximal inhibitory concentration (IC50) in series [1] turned out to be 70 ± 10 nM; in series [2], 5570 ± 120 nM. For the same molecule, the Paw thickness difference in series [3] (1st h after carrageenan) turned out to be 1.65 ± 0.22 mm; in series [3] (2nd h after carrageenan), 2.64 ± 0.33 mm; in series [3] (3rd h after carrageenan), 3.11 ± 0.29 mm; in series [3] (4th h after carrageenan) it was 3.81 ± 0.19 mm; in series [3] (5th h after carrageenan), 4.22 ± 0.28 mm. The “Percentage of inhibition of paw thickness” value in series [3] (1st h) turned out to be 16.47%; in series [3] (2nd h), 19.99%; in series [3] (3rd h), 26.25%; in series [3] (4th h) it was 24.47%; in series [3] (5th h) it was 20.54%. In series [3], the “Paw Weight Increase” value was 69.01 ± 4.61 ^abcd %.

For `O=C(O)COc1ccc(Br)cc1/C=N/NC(=O)CNc1ccccc1` [Compound 10d], in series [1], the “SI (COX-2 selectivity index)” value is 87.50. Besides, the figures for the 50% inhibitory concentration (IC50) in series [1] and in series [2] were 80 ± 10 nM and 7000 ± 200 nM, respectively. The Paw thickness difference in series [3] (1st h after carrageenan) came to 1.55 ± 0.41 mm; in series [3] (2nd h after carrageenan), 2.60 ± 0.21 mm; in series [3] (3rd h after carrageenan), 2.93 ± 0.37 mm; in series [3] (4th h after carrageenan) it was 3.44 ± 0.37 mm; in series [3] (5th h after carrageenan), 3.73 ± 0.34 mm. The “Percentage of inhibition of paw thickness” value in series [3] (1st h) is on record as 21.37%; in series [3] (2nd h) it was 21.15%; in series [3] (3rd h), 30.56%; in series [3] (4th h), 31.87%; in series [3] (5th h), 29.71%. The “Paw Weight Increase” value in series [3] is reported as 60.8 ± 4.27 ^abcd %.

`Cc1ccc(NCC(=O)NN=Cc2cc(Br)ccc2OCC(=O)O)cc1` [Compound 10e, 2-(4-Bromo-2-((2-(p-tolylglycyl)hydrazineylidene)methyl)phenoxy)aceticacid]: the “SI (COX-2 selectivity index)” value in series [1] is recorded as 67.83. Further, the figures for the half-inhibitory concentration (IC50) in series [1] and in series [2] were 60 ± 10 nM and 4070 ± 120 nM, respectively. Moreover, the Paw thickness difference in series [3] (1st h after carrageenan) was determined as 1.79 ± 0.39 mm; in series [3] (2nd h after carrageenan), 3.00 ± 0.30 mm; in series [3] (3rd h after carrageenan) it was 3.58 ± 0.17 mm; in series [3] (4th h after carrageenan), 3.98 ± 0.26 mm; in series [3] (5th h after carrageenan), 4.17 ± 0.24 mm. Further, the “Percentage of inhibition of paw thickness” value was 9.38% in series [3] (1st h); 9.01% in series [3] (2nd h); 15.28% in series [3] (3rd h); 21.24% in series [3] (4th h); 21.42% in series [3] (5th h). In series [3], the “Paw Weight Increase” value is reported as 64.95 ± 6.79 ^abcd %.

For `O=C(O)COc1ccc(Br)cc1C=NNC(=O)CNc1ccc(Cl)cc1` [Compound 10f, 2-(4-Bromo-2-((2-((4 chlorophenyl)glycyl)hydrazineylidene)methyl)phenoxy) acetic acid], the “SI (COX-2 selectivity index)” value in series [1] came to 55.22. For the same molecule, the concentration for half-maximal inhibition (IC50) in series [1] amounted to 90 ± 10 nM; in series [2], 4970 ± 60 nM. Besides, the Paw thickness difference in series [3] (1st h after carrageenan) is 1.77 ± 0.27 mm; in series [3] (2nd h after carrageenan), 2.85 ± 0.46 mm; in series [3] (3rd h after carrageenan) it was 3.24 ± 0.46 mm; in series [3] (4th h after carrageenan), 3.63 ± 0.48 mm; in series [3] (5th h after carrageenan), 3.78 ± 0.51 mm. The “Percentage of inhibition of paw thickness” value in series [3] (1st h) came out at 10.39%; in series [3] (2nd h), 13.51%; in series [3] (3rd h), 23.17%; in series [3] (4th h), 28.04%; in series [3] (5th h), 28.80%. Moreover, the “Paw Weight Increase” value in series [3] is given as 59.16 ± 2.72 ^abcd %.

(Values after article PMC10974743, “Design, Synthesis, and Biological Evaluation of Novel Phenoxy Acetic Acid Derivatives as Selective COX-2 Inhibitors Coupled with Comprehensive Bio-Pharmacological Inquiry, Histopathological Profiling, and Toxicological Scrutiny” (Molecules, 2024).)
